Measured values as given in patent US20090275539A1, “Nuclear Transcription Factors Regulators” (CTG PHARMA S.R.L., priority 2004, published 2009).

Key:
[1] = test system: heme oxygenase-1 (OH-1); assay: Zymosan-induced OH-1 protein expression in Raw 264.7 macrophages (western blot); assay type: cell-based, murine; settings: for OH-1 protein expression, band intensity: zymosan-stimulated Raw 264.7, 18 hrs
Experimental: (§1) For the screening approach it was decided to test the compounds object of the present invention and fulfilling the structural general criteria previously described for heme oxygenase-1 (OH-1) and inducible nitric oxide synthase (iNOS). The enzyme tests were performed as described by Vicente A M et al. (Br. J. Pharmacol. 2001, 133, 920-6). The formation of both these two enzymes was associated with the activation of transcription factors, and NF-kB particularly.
(§2) In brief, Raw 264.7 murine macrophage cell line were maintained in a proper culture medium supplemented with 10% fetal bovine serum, 2 mM L-glutamine and penicillin/streptomycin. Suspensions of zymosan A from Saccharomyces cerevisiae in saline were used. After incubation with zymosan and/or test compounds for 18 hrs, cells supernatants were collected to measure protein expression, by western blot analysis. After incubation, macrophages were lysed in 100 microliters of buffer (1% Triton X-100, 1% deoxicholic acid, 20 mM NaCl and 25 mM Tris, pH 7.4) and then centrifuged at 4° C. for 5 min at 10,000×g. The protein content was determined by the Bradford method using bovine serum albumin as standard. Cell lysate (40 micrograms of protein) was mixed with Laemmli sample buffer under reducing conditions. […] Membranes were incubated with specific antibodies: polyclonal antibody against iNOS (1/1000, Cayman Chemical) and anti-OH-1 monoclonal antibody (1/2000, Stressgen). Blots were washed and incubated with peroxidase-conjugated goat IgG (1/20,000). The immunoreactive bands were visualized by an enhanced chemiluminescence system and band intensity quantitated using computer-assisted densitometry.

[2] = test system: inducible nitric oxide synthase (iNOS); assay: Zymosan-induced iNOS protein expression in Raw 264.7 macrophages (western blot); assay type: cell-based, murine; settings: for INOS protein expression, band intensity: zymosan-stimulated Raw 264.7, 18 hrs
Experimental: as §1, §2

[3] = test system: NF-kB; assay: NF-kB-CAT reporter gene assay (CAT activity); assay type: cell-based; settings: test compound 100 μm; for NF-kB activity: % of CAT synthesis, TNF-stimulated: human TNF alpha 100 ng/ml
Experimental: The NF-kB-CAT reporter gene cell line (Lenardo M J et al., Cell 58, 227-9, 1989) and. L29/Ji6 cells (Fratelli M et al, Antioxidants & Redox Signalling 5, 229-235, 2003) were prepared as previously described. Human TNF alpha (100 ng/ml) was used. The chloramphenicol-acetyltransferase (CAT) activity was measured by adding 40 microliters of Tris-HCl buffer (250 mM, ph 7.5) and D-threo-[dichloroacetyl]1,2 ^14C chloramphenicol (10 microliters, 8.3×10^−2 mCi/sample) The reaction was started by the addition of n-butyryl coenzyme A. After 2 h at 37° C., the reaction was stopped by extraction with hexane/xylene (2:1). The upper organic phase containing the reaction product was then recovered, and radioactivity was counted on a beta-counter. The activity on NF-kB was expressed as […].

[4] = test system: IL-6; assay: Expression of NF-kB regulated cytokine IL-6 in HeLa cells (ELISA); assay type: cell-based; settings: for Inhibition of the production of IL-6: after 120 minutes
Experimental: (§3) The cells were stimulated with 100 μmol of compound described in example 6 with TNF (200 E/ml) or with PMA (50 ng/ml) and the concentration of IL-6 or IL-8 was measured in the cell supernatant at various interval using ELISA (British Biotechnology Products Ltd.).

[5] = test system: IL-8; assay: Expression of NF-kB regulated cytokine IL-8 in HeLa cells (ELISA); assay type: cell-based; settings: for IL-8 concentration in cell supernatant: 120′; for Inhibition of the production of IL-8: after 120 minutes
Experimental: as §3

[6] = zymosan-stimulated Raw 264.7, summary of table I

Structure (SMILES): CC(=O)Sc1ccccc1C(=O)Oc1ccc(CO[N+](=O)[O-])cc1 [ATANPE, acetyl thiosalicylic acid 4-(nitroxymethyl)phenyl ester]
- OH-1 protein expression, band intensity ([1]; concentration 10 μmol): 293 percentage with respect to zymosan
- Effect on OH-1 production (in words) [1, 6]: stimulate OH-1 production
- INOS protein expression, band intensity ([2]; concentration 10 μmol): 48 percentage with respect to zymosan
- Effect on iNOS formation (in words) [2, 6]: inhibit iNOS formation
- NF-kB activity: % of CAT synthesis, Basal [3]: 31%
- NF-kB activity: % of CAT synthesis, TNF-stimulated [3]: 26%
- IL-6 concentration in cell supernatant ([4]; PMA (50 ng/ml) + 100 μmol compound, 15′): 920 pg/mL
- IL-6 concentration in cell supernatant ([4]; PMA (50 ng/ml) + 100 μmol compound, 120′): 3138 pg/mL
- IL-6 concentration in cell supernatant ([4]; TNF (200 E/ml) + 100 μmol compound, 15′): 945 pg/mL
- IL-6 concentration in cell supernatant ([4]; TNF (200 E/ml) + 100 μmol compound, 120′): 1738 pg/mL
- Inhibition of the production of IL-6 ([4]; first of two values printed with '(TNF stimulation)'): 87%
- Inhibition of the production of IL-6 ([4]; second of two values printed with '(TNF stimulation)'): 74%
- IL-8 concentration in cell supernatant ([5]; PMA (50 ng/ml) + 100 μmol compound): 12 pg/mL
- IL-8 concentration in cell supernatant ([5]; TNF (200 E/ml) + 100 μmol compound): 6 pg/mL
- Inhibition of the production of IL-8 ([5]; first of two values printed with '(PMA stimulation)'): 90%
- Inhibition of the production of IL-8 ([5]; second of two values printed with '(PMA stimulation)'): 97%

Structure (SMILES): CC(=O)Oc1ccccc1C(=O)O [Aspirin, reference compound]
- NF-kB activity: % of CAT synthesis, Basal [3]: 100%
- NF-kB activity: % of CAT synthesis, TNF-stimulated [3]: 92%

Structure (SMILES): C[C@@H]1C[C@H]2[C@@H]3CCC4=CC(=O)C=C[C@]4(C)[C@@]3(F)[C@@H](O)C[C@]2(C)[C@@]1(O)C(=O)CO [Dexamethasone, dexamethasone]
- OH-1 protein expression, band intensity ([1]; concentration 1 μmol): 20 percentage with respect to zymosan
- INOS protein expression, band intensity ([2]; concentration 1 μmol): 85 percentage with respect to zymosan

Structure (SMILES): COc1ccc2c(c1)c(CC(=O)O)c(C)n2C(=O)c1ccc(Cl)cc1 [Indomethacin, indomethacin]
- OH-1 protein expression, band intensity ([1]; concentration 1 μmol): 65 percentage with respect to zymosan
- INOS protein expression, band intensity ([2]; concentration 1 μmol): 78 percentage with respect to zymosan

Structure (SMILES): CC(=O)N[C@@H](CS)C(=O)O [N-acetylcysteine]
- OH-1 protein expression, band intensity ([1]; concentration 100 μmol): 44 percentage with respect to zymosan
- INOS protein expression, band intensity ([2]; concentration 100 μmol): 80 percentage with respect to zymosan

Structure (SMILES): CS(=O)(=O)Nc1ccc([N+](=O)[O-])cc1OC1CCCCC1 [NS398]
- OH-1 protein expression, band intensity ([1]; concentration 10 μmol): 72 percentage with respect to zymosan
- INOS protein expression, band intensity ([2]; concentration 10 μmol): 120 percentage with respect to zymosan

Structure (SMILES): CC(c1cc2ccccc2s1)N(O)C(N)=O (stereo not shown) [Zileuton, zileuton]
- OH-1 protein expression, band intensity ([1]; concentration 10 μmol): 125 percentage with respect to zymosan
- INOS protein expression, band intensity ([2]; concentration 10 μmol): 112 percentage with respect to zymosan
